According to patent US20210177542A1, “POWDER FOR CLEANING AN INTERNAL BODY PART AND/OR AN IMPLANT, METHOD FOR PRODUCING SAID TYPE OF POWDER AND SUITABLE USES” (FERTON HOLDING S.A., priority 2017, published 2021):
In brackets after ≈: the same amount, converted by molar mass.

How the values were obtained:
Assay type in all cases: physicochemical
[1] = Density of the powder; conditions: Table 1
Source text: In another embodiment of the present disclosure, it is provided for the powder to have a density between 0.2 and 3 g/cm^3, preferably between 0.2 and 2.4 g/ cm^3 and particularly preferably between 0.2 and 1.6 g/ cm^3.

[2] = Hygroscopicity (moisture absorption) of the powder types; conditions: sensitivity to moisture during sterilizing
Source text: The powders of present disclosure are hygroscopic. According to a preferred embodiment, amorphous silica (silicon dioxide) is therefore added to the powders, especially in a volume ratio of 0.1 to 2.5%. This can reduce or even completely prevent absorption of moisture by the powder during sterilizing. The addition of amorphous silica results in hydrophobic coating for the powder particles, thus counteracting the moisture absorption of the powder particles during the sterilizing process. In less hygroscopic powders, addition of amorphous silica may be reduced or even completely omitted. The following powder types may be classified as hygroscopic: sodium hydrogen carbonate, glycine and erythritol.

[3] = Solubility in water at 20° C.; conditions: for Solubility in water: Table 2; for solubility: water, Table 1
Source text: In this disclosure, substances are classified as water-soluble if more than 1 g of powder can be added per liter. […] The preferred powders have the following properties: […]

O=C([O-])O.[Na+] [Sodium bicarbonate, sodium bicarbonate]
Density [1]: 2.54 g/mL
Classification as hygroscopic [2]: hygroscopic

OC[C@@H](O)[C@@H](O)CO [Erythritol, erythritol]
Solubility in water [3]: 540 g/1
solubility [3]: 540 mg/mL (≈ 4420 mM)
Density [1]: 1.45 g/mL
Classification as hygroscopic [2]: hygroscopic

OC[C@H]1O[C@H](O[C@H]2O[C@H](CO)[C@@H](O)[C@H](O)[C@H]2O)[C@H](O)[C@@H](O)[C@@H]1O [Trehalose, trehalose]
Solubility in water [3]: 690 g/1
solubility [3]: 690 mg/mL (≈ 2020 mM)
Density [1]: 1.80 g/mL
Classification as hygroscopic [2]: slightly less sensitive

NCC(=O)O [Glycine, glycine]
Density [1]: 1.61 g/mL
Classification as hygroscopic [2]: hygroscopic
